This passage reports IC50 and melting point results from PMC6150240, “Synthesis and 2D-QSAR Study of Active Benzofuran-Based Vasodilators” (Molecules : A Journal of Synthetic Chemistry and Natural …, 2017).

Series [1] deals with isolated thoracic aortic rings of male Wistar rats. Description: Vasodilation activity screening: isolated thoracic aortic rings pre-contracted with norepinephrine hydrochloride. The note with it: Rattus norvegicus. The method, then: The vasodilation activity screening procedures were carried out according to the standard reported techniques by testing the effects of the synthesized 2-alkoxy-4-aryl-6-(benzofuran-2-yl)-3-pyridinecarbonitriles 4a–x on isolated thoracic aortic rings of male Wistar rats (250–350 g). After light ether anesthesia, the rats were sacrificed by cervical dislocation. The aortae were immediately excised, freed of extraneous tissues and prepared for isometric tension recording. Aorta was cut into (3–5 mm width) rings and each ring was placed in a vertical chamber “10 mL jacketed automatic multi-chamber organ bath system (Model no. ML870B6/C, Panlab, Spain)” filled with Krebs solution composed of (in mM): NaCl, 118.0; KCl, 4.7; NaHCO3, 25.0; CaCl2, 1.8; NaH2PO4, 1.2; MgSO4, 1.2; glucose, 11.0 and oxygenated with carbogen gas (95% O2/5% CO2) at 37 ± 0.5 °C. Each aortic ring was mounted between two stainless steel hooks passed through its lumen. The lower hook was fixed between two plates, while the upper one was attached to a force displacement transducer (Model no. MLT0201, Panlab, Spain) connected to an amplifier (PowerLab, AD Instruments Pty., Ltd. Victoria, Australia), which is connected to a computer. The chart for Windows (v 3.4) software was used to record and elaborate data. Preparations were stabilized under 2 g resting tension during 2 h and then the contracture response to norepinephrine hydrochloride (10^−6 M) was measured before and after exposure to increasing concentrations of the tested synthesized compounds. The tested compounds were dissolved in dimethylsulfoxide (DMSO) as stock solution (10 mL of 0.005 M). […] This experiment was carried out in according to recommendations in the Guide for the Care and Use of Laboratory Animals of the National Institutes of Health (NIH publication No. 85–23, revised 1996) and under regulations of the Animal Care and Use of National Research Centre in Egypt.

Setting [2] is: norepinephrine hydrochloride 10^−6 M, three replicates, read-out: Potency (IC50), concentration necessary for 50% reduction of maximal norepinephrine hydrochloride induced contracture.
Setting [3] is: norepinephrine hydrochloride induced contracture, observed values as used in the QSAR, read-out: Observed IC50.

Where two headings read alike, the source gives them in different places.

Consider `COc1nc(-c2ccccc2)cc(-c2cn(-c3ccccc3)nc2-c2cc3ccccc3o2)c1C#N` [Compound 4a, 4-(3-(Benzofuran-2-yl)-1-phenyl-1H-pyrazol-4-yl)-2-methoxy-6-phenylpyridine-3-carbonitrile], for which the IC50 in series [1] (setting [2]) and in series [1] (setting [3]) was 281 µM in each case.

For orientation: melting point means the temperature of the solid-liquid transition. In turn, `CCOc1nc(-c2ccccc2)cc(-c2cn(-c3ccccc3)nc2-c2cc3ccccc3o2)c1C#N` [Compound 4b, 4-(3-(Benzofuran-2-yl)-1-phenyl-1H-pyrazol-4-yl)-2-ethoxy-6-phenylpyridine-3-carbonitrile] showed a melting point of 186 to 188 °C. In addition, in series [1] (setting [2]), the IC50 was found to be 343 µM. For the same molecule, in series [1] (setting [3]), the IC50 was found to be 343 µM.

In the case of `COc1nc(-c2ccc(Cl)cc2)cc(-c2cn(-c3ccccc3)nc2-c2cc3ccccc3o2)c1C#N` [Compound 4c, 4-(3-(Benzofuran-2-yl)-1-phenyl-1H-pyrazol-4-yl)-6-(4-chlorophenyl)-2-methoxypyridine-3-carbonitrile], the IC50 in series [1] (setting [2]) and in series [1] (setting [3]) was 295 µM throughout.

As for `CCOc1nc(-c2ccc(Cl)cc2)cc(-c2cn(-c3ccccc3)nc2-c2cc3ccccc3o2)c1C#N` [Compound 4d, 4-(3-(Benzofuran-2-yl)-1-phenyl-1H-pyrazol-4-yl)-6-(4-chlorophenyl)-2-ethoxypyridine-3-carbonitrile], the melting point is 199 to 201 °C. Also, the IC50 in series [1] (setting [2]) stood at 397 µM. Further, the IC50 in series [1] (setting [3]) was 397 µM.

`COc1nc(-c2ccc(Br)cc2)cc(-c2cn(-c3ccccc3)nc2-c2cc3ccccc3o2)c1C#N` [Compound 4e, 4-(3-(Benzofuran-2-yl)-1-phenyl-1H-pyrazol-4-yl)-6-(4-bromophenyl)-2-methoxypyridine-3-carbonitrile]: the IC50 in series [1] (setting [2]) and in series [1] (setting [3]) was 253 µM each time.

On to `CCOc1nc(-c2ccc(Br)cc2)cc(-c2cn(-c3ccccc3)nc2-c2cc3ccccc3o2)c1C#N` [Compound 4f, 4-(3-(Benzofuran-2-yl)-1-phenyl-1H-pyrazol-4-yl)-6-(4-bromophenyl)-2-ethoxypyridine-3-carbonitrile], for which the IC50 in series [1] (setting [2]) and in series [1] (setting [3]) was 267 µM in each case.

As for `COc1nc(-c2ccc(F)cc2)cc(-c2cn(-c3ccccc3)nc2-c2cc3ccccc3o2)c1C#N` [Compound 4g, 4-(3-(benzofuran-2-yl)-1-phenyl-1H-pyrazol-4-yl)-6-(4-fluorophenyl)-2-methoxypyridine-3-carbonitrile], the IC50 in series [1] (setting [2]) and in series [1] (setting [3]) was 275 µM throughout.

`CCOc1nc(-c2ccc(F)cc2)cc(-c2cn(-c3ccccc3)nc2-c2cc3ccccc3o2)c1C#N` [Compound 4h, 4-(3-(Benzofuran-2-yl)-1-phenyl-1H-pyrazol-4-yl)-2-ethoxy-6-(4-fluorophenyl)pyridine-3-carbonitrile] displayed a melting point of 204 to 206 °C. In addition, the IC50 in series [1] (setting [2]) amounted to 330 µM. Further, in series [1] (setting [3]), the IC50 came out at 330 µM.

In turn, `COc1nc(-c2ccc(C)cc2)cc(-c2cn(-c3ccccc3)nc2-c2cc3ccccc3o2)c1C#N` [Compound 4i, 4-(3-(Benzofuran-2-yl)-1-phenyl-1H-pyrazol-4-yl)-2-methoxy-6-p-tolylpyridine-3-carbonitrile] registered a melting point of 258 to 260 °C. Moreover, the IC50 in series [1] (setting [2]) amounted to 330 µM. Moreover, in series [1] (setting [3]), the IC50 was found to be 330 µM.

The molecule `CCOc1nc(-c2ccc(C)cc2)cc(-c2cn(-c3ccccc3)nc2-c2cc3ccccc3o2)c1C#N` [Compound 4j, 4-(3-(Benzofuran-2-yl)-1-phenyl-1H-pyrazol-4-yl)-2-ethoxy-6-p-tolylpyridine-3-carbonitrile] gave a melting point of 202 to 204 °C. Moreover, in series [1] (setting [2]), the IC50 stood at 452 µM. Besides, the IC50 in series [1] (setting [3]) came to 452 µM.

As for `COc1ccc(-c2cc(-c3cn(-c4ccccc4)nc3-c3cc4ccccc4o3)c(C#N)c(OC)n2)cc1` [Compound 4k, 4-(3-(Benzofuran-2-yl)-1-phenyl-1H-pyrazol-4-yl)-2-methoxy-6-(4-methoxyphenyl)pyridine-3-carbonitrile], the melting point is 256 to 258 °C. Besides, the IC50 in series [1] (setting [2]) is 428 µM. In series [1] (setting [3]), the IC50 came out at 322 µM.

On to `CCOc1nc(-c2ccc(OC)cc2)cc(-c2cn(-c3ccccc3)nc2-c2cc3ccccc3o2)c1C#N` [Compound 4l, 4-(3-(Benzofuran-2-yl)-1-phenyl-1H-pyrazol-4-yl)-2-ethoxy-6-(4-methoxyphenyl)pyridine-3-carbonitrile], for which the IC50 in series [1] (setting [2]) and in series [1] (setting [3]) was 291 µM each time.

As to `COc1nc(-c2ccc3c(c2)CCCC3)cc(-c2cn(-c3ccccc3)nc2-c2cc3ccccc3o2)c1C#N` [Compound 4m, 4-(3-(Benzofuran-2-yl)-1-phenyl-1H-pyrazol-4-yl)-6-(1,2,3,4-tetrahydronaphthalen-6-yl)-2-methoxypyridine-3-carbonitrile], the IC50 in series [1] (setting [2]) and in series [1] (setting [3]) was 286 µM each time.

Consider `CCOc1nc(-c2ccc3c(c2)CCCC3)cc(-c2cn(-c3ccccc3)nc2-c2cc3ccccc3o2)c1C#N` [Compound 4n, 4-(3-(Benzofuran-2-yl)-1-phenyl-1H-pyrazol-4-yl)-2-ethoxy-6-(1,2,3,4-tetrahydronaphthalen-6-yl)pyridine-3-carbonitrile], for which the melting point fell in the range of 213 to 215 °C. Further, the IC50 in series [1] (setting [2]) worked out at 337 µM. Also, the IC50 in series [1] (setting [3]) was 337 µM.

`COc1nc(-c2ccc[nH]2)cc(-c2cn(-c3ccccc3)nc2-c2cc3ccccc3o2)c1C#N` [Compound 4o, 4-(3-(Benzofuran-2-yl)-1-phenyl-1H-pyrazol-4-yl)-2-methoxy-6-(1H-pyrrol-2-yl)pyridine-3-carbonitrile] showed a melting point of 187 to 189 °C. Also, in series [1] (setting [2]), the IC50 came to 356 µM.

As to `CCOc1nc(-c2ccc[nH]2)cc(-c2cn(-c3ccccc3)nc2-c2cc3ccccc3o2)c1C#N` [Compound 4p, 4-(3-(Benzofuran-2-yl)-1-phenyl-1H-pyrazol-4-yl)-2-ethoxy-6-(1H-pyrrol-2-yl)pyridine-3-carbonitrile], the melting point was 208 to 210 °C. The IC50 in series [1] (setting [2]) was found to be 400 µM. Besides, the IC50 in series [1] (setting [3]) was 298 µM.

`COc1nc(-c2ccco2)cc(-c2cn(-c3ccccc3)nc2-c2cc3ccccc3o2)c1C#N` [Compound 4q, 4-(3-(Benzofuran-2-yl)-1-phenyl-1H-pyrazol-4-yl)-6-(furan-2-yl)-2-methoxypyridine-3-carbonitrile] had a melting point of 246 to 248 °C. Also, the IC50 in series [1] (setting [2]) was 321 µM. Besides, the IC50 in series [1] (setting [3]) was 321 µM.

`CCOc1nc(-c2ccco2)cc(-c2cn(-c3ccccc3)nc2-c2cc3ccccc3o2)c1C#N` [Compound 4r, 4-(3-(Benzofuran-2-yl)-1-phenyl-1H-pyrazol-4-yl)-2-ethoxy-6-(furan-2-yl)pyridine-3-carbonitrile]: the IC50 in series [1] (setting [2]) and in series [1] (setting [3]) was 254 µM each time.

For `COc1nc(-c2cccs2)cc(-c2cn(-c3ccccc3)nc2-c2cc3ccccc3o2)c1C#N` [Compound 4s, 4-(3-(Benzofuran-2-yl)-1-phenyl-1H-pyrazol-4-yl)-2-methoxy-6-(thiophen-2-yl)pyridine-3-carbonitrile], the IC50 in series [1] (setting [2]) is 268 µM.

As to `CCOc1nc(-c2cccs2)cc(-c2cn(-c3ccccc3)nc2-c2cc3ccccc3o2)c1C#N` [Compound 4t, 4-(3-(Benzofuran-2-yl)-1-phenyl-1H-pyrazol-4-yl)-2-ethoxy-6-(thiophen-2-yl)pyridine-3-carbonitrile], the IC50 in series [1] (setting [2]) worked out at 298 µM; in series [1] (setting [3]), 400 µM.

The molecule `COc1nc(-c2ccccn2)cc(-c2cn(-c3ccccc3)nc2-c2cc3ccccc3o2)c1C#N` [Compound 4u, 4-(3-(Benzofuran-2-yl)-1-phenyl-1H-pyrazol-4-yl)-2-methoxy-6-(pyridin-2-yl)pyridine-3-carbonitrile] came in with a melting point of 275 to 277 °C. The IC50 in series [1] (setting [2]) is 333 µM. The IC50 in series [1] (setting [3]) was 333 µM.

Take `CCOc1nc(-c2ccccn2)cc(-c2cn(-c3ccccc3)nc2-c2cc3ccccc3o2)c1C#N` [Compound 4v, 4-(3-(Benzofuran-2-yl)-1-phenyl-1H-pyrazol-4-yl)-2-ethoxy-6-(pyridin-2-yl)pyridine-3-carbonitrile]: the melting point fell in the range of 204 to 206 °C. Further, the IC50 in series [1] (setting [2]) was found to be 370 µM. Further, the IC50 in series [1] (setting [3]) worked out at 370 µM.

For `COc1nc(-c2nc3ccccc3n2C)cc(-c2cn(-c3ccccc3)nc2-c2cc3ccccc3o2)c1C#N` [Compound 4w, 4-(3-(Benzofuran-2-yl)-1-phenyl-1H-pyrazol-4-yl)-2-methoxy-6-(1-methyl-1H-benzo[d]imidazole-2-yl)pyridine-3-carbonitrile], the IC50 in series [1] (setting [2]) and in series [1] (setting [3]) was 223 µM in each case.

Regarding `CCOc1nc(-c2nc3ccccc3n2C)cc(-c2cn(-c3ccccc3)nc2-c2cc3ccccc3o2)c1C#N` [Compound 4x, 4-(3-(Benzofuran-2-yl)-1-phenyl-1H-pyrazol-4-yl)-2-ethoxy-6-(1-methyl-1H-benzo[d]-imidazol-2-yl)pyridine-3-carbonitrile], the IC50 in series [1] (setting [2]) and in series [1] (setting [3]) was 299 µM each time.
